# Laboratory results from patent US20110027846A1, “CONTROL OF BACTERIA IN FERMENTATION PROCESSES” (priority 2007, published 2011).
# Assays:
# yeast = yeast level on SDA medium after biocide contact (Comparative Example 3); type: cell-based; conditions: 2 hours after contact, biocide concentration 50 ppm
# Source text: (§1) A comparison is done to show the effect of four different biocides on yeast level and bacteria level in various media and at various points relative to introduction of the biocide. SDA medium is synthetic defined agar, and PCA medium is plate count agar. Dow Antimicrobial™ 7287 is a composition containing 20 percent 2,2-dibromo-3-nitrilopropionamide (DBNPA), sold by The Dow Chemical Company.
# bacteria = bacteria level on PCA medium after biocide contact (Comparative Example 3); type: cell-based; conditions: PCT medium, 2 hours after contact; biocide concentration 50 ppm
# Source text: as §1
substance,measurement,setting,value
Diethyl Carbamate,Yeast level,yeast,<1.0 × 10^4 cfu/ml
same,Bacteria level,bacteria,2.6 × 10^7 cfu/ml
